For one test, the target named is sPLA2 (h) (type V) (Homo sapiens (Human), UniProt P39877). Nature of the test: Cerep enzyme inhibition screen: sPLA2. The class given is biochemical. Particulars: mean of two determinations, read-out: Inhibitory activity (% Inh. at 10 μM), mean. The source says:
(§1) Compound of Example 25 falling in both Formula (I) and (Ia) was selected to be tested for off-target effects on a set of enzymes that include proteases (aspartic, cysteine, and serine), cyclooxygenases as well as lipoxygenases and group IV phospholipase (sPLA2) (Table 3). [table]

Another test deals with cathepsin B (h) (Homo sapiens (Human), UniProt P07858). Put plainly: Cerep enzyme inhibition screen: cathepsin B. Format: biochemical. Particulars: mean of two determinations, read-out: Inhibitory activity (% Inh. at 10 μM), mean.
Excerpt: as §1

A further test deals with SW403 cells. Nature of the test: sphingosine and ceramide levels in SW403 cells. The class given is cell-based, human. Particulars: 0.1-20 μM, 3 hours. On the procedure:
(A) Intact cells were treated with compound of Example 25 (0.1-20 μM) or vehicle and AC activity was measured 3 hours later in cell lysates. (B-E) Intact cells were exposed to compound of Example 25 (0.1-20 μM) for 3 hours and sphingosine/sphinganine (B), dihydroceramides (C), medium chain ceramides (D), long chain ceramides (E) were quantified. Results are expressed as mean±s.e.m. (n=3). *p<0.05, **p<0.01, ***p<0.001 vs vehicle, two-way ANOVA followed by Dunnet.
(A) Intact cells were treated with compound of Example 25 (20 μM) or vehicle and AC activity was measured 1 to 48 hours later in cell lysates. (B-E) Intact cells were exposed to compound of Example 25 (20 μM) and sphingosine (B), C16:0 dihydroceramide (C), C16:0 ceramide (D) were quantified. Results are expressed as mean±s.e.m. […]
Lipids were extracted from mouse tissue lysate with a chloroform/MeOH mixture (2:1 v/v, 3 mL) containing internal standards. […] Ceramides, sphingosine and sphinganine were analyzed by LC-MS/MS, using a Waters Acquity UPLC coupled with a Waters Xevo TQMS and interfaced with ESI. […]
Tissue-derived sphingosine and sphinganine were identified by comparison of their LC retention times and MS^2 fragmentation patterns with those of authentic standards (Avanti Polar Lipids). Extracted ion chromatograms were used to quantify sphingosine ([…], m/z 300.5>282.5) and sphinganine standard (C18:0, m/z 303>285). […]

Test [1] has as its target human (hAC) acid ceramidase (Homo sapiens (Human), UniProt Q13510). Nature of the test: fluorescent-based in vitro assay on human acid ceramidase. Particulars: hAC-enriched lysosomal lysate from HEK293 cells; fluorogenic probe 5 μM; pH 4.5. The class given is biochemical. The source says:
To evaluate the potency of the compounds towards acid ceramidase, a fluorescence-based in vitro assay previously described in literature (Bedia C et al., ChemBioChem, 2007, 8, 642-648) was implemented and optimized. This assay is based on a “fluorogenic probe” containing a coumarin group and a sphingoid base moiety (see figure below), which is not fluorescent in itself, but upon enzymatic cleavage by acid ceramidase followed by a chemical transformation liberates the fluorescent molecule umbelliferone (7-hydroxychromen-2-one). By quantifying the generation of umbelliferone using a fluorescence plate-reader, the level of enzymatic activity can be measured, whereby IC50 values of compounds that inhibit this activity can be generated.
Lysosomal lysate, enriched with acid ceramidase, was prepared from a cell line stably expressing human acid ceramidase. In the assay, the fluorogenic probe (or substrate) serves as a ceramide-analogue, which is recognized and hydrolyzed at the amide bond by acid ceramidase from the enriched lysate to yield the fatty acid and coumarinic aminodiol. By treating the solution with sodium periodate (NaIO4), the coumarinic aminodiol is subsequently oxidized into an aldehyde intermediate, which undergoes a β-elimination reaction to release the strongly fluorescent umbelliferone.
A lysosomal human acid ceramidase protein preparation was obtained from HEK293 cells stably expressing acid ceramidase suspended in 20 mM Tris HCl (pH 7.5) with 0.32 M sucrose. The cell solution was sonicated and centrifuged at 800×g for 15 min at 4° C. Supernatants were then centrifuged at 12,000×g for 30 min at 4° C. Pellets were re-suspended in PBS pH 7.4 and subjected to two freeze-thaw cycles at −80° C. The suspension was finally centrifuged at 105,000×g for 1 hour at 4° C. and protein concentration was measured in the supernatant with bicinchinonic-acid based protein assay. This human acid ceramidase-enriched preparation allowed us to further optimize the enzymatic assay and to use smaller amounts of lysate (2 μg/well) and substrate (5 μM).
The assay was performed in Optiplate 96-wells black plates, with each reaction well containing a mixture of 25 mM sodium acetate buffer pH 4.5 and a fixed amount of protein (2 μg) in a volume of 85 μL. After 30 mins of pre-incubation with test compounds (diluted 20× from DMSO stock solutions at different concentrations), the fluorogenic probe was added (diluted 20× from EtOH stock solution, final concentration 5 μM). After incubation for 3 hours at 37° C., the reactions were stopped with 50 μL of methanol and 100 μL of a 2.5 mg/mL NalO4 fresh solution in 100 mM Glycine/NaOH pH 10.6. The plate was incubated at 37° C. for 2 hours in the dark and fluorescence intensities were measured at excitation/emission wavelengths of 360/446 nm. Negative control samples consisted of the same incubation mixture in the absence of protein extracts. The IC50 values or percent of inhibition, at the indicated concentration, of selected compounds described in the invention are reported in Table 2.

Chain of sPLA2 (h) (type V) (P39877 21-138): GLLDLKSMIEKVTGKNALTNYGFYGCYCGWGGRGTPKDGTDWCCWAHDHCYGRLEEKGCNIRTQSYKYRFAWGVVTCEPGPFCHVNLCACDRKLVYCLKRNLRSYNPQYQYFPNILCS
Chain of human (hAC) acid ceramidase (Q13510 22-142): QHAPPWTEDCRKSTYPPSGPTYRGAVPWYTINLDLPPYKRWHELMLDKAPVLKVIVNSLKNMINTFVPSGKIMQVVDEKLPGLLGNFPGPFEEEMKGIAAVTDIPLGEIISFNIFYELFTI
Chain of human (hAC) acid ceramidase (Q13510 143-395): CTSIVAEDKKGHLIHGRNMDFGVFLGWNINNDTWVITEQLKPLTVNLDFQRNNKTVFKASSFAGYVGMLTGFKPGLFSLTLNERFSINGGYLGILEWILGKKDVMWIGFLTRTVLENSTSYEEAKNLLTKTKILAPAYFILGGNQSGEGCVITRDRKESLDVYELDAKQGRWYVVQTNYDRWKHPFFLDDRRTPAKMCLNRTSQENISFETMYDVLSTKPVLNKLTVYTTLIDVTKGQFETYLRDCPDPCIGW

On to `O=C(NCCCCc1ccccc1)n1c(=O)oc2cc(-c3ccc(F)cc3)ccc21` [Example 25, 6-(4-Fluorophenyl)-2-oxo-N-(4-phenylbutyl)-1,3-benzoxazole-3-carboxamide], for which, at sPLA2 (h) (type V), the inhibition at 10 µM amounted to 1.1%. In addition, the inhibition at 10 µM on cathepsin B (h) came out at 9.9%. In the test on SW403 cells, the “di-hydro ceramides and ceramide species levels” value is “intracellular accumulation of various di-hydro ceramides and ceramide species”; the sphingosine levels entry is “parallel decrease in sphingosine levels”.
One may read the IC50 as the point on the concentration scale where inhibition reaches its midpoint. In turn, `O=C(NCCCCc1ccccc1)n1c(=O)oc2cc(Br)ccc21` [Example 7, 6-Bromo-2-oxo-N-(4-phenylbutyl)-1,3-benzoxazole-3-carboxamide] showed an IC50 in test [1] of 33 ± 9 nM.
